Laboratory results: PubChem BioAssay (NCI)
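Values below derive from 48-hour exposures of cells grown in 96-well plates, with endpoints linearly interpolated between the two concentrations bracketing the appropriate inhibition level. TGI denotes the concentration required for complete inhibition of growth.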

How the values were obtained:
Assay in all cases: NCI-60 cell line screen, 48 h
EKVX NSCLC = system: EKVX NSCLC
BT-549 breast = system: BT-549 breast
UACC-257 melanoma = system: UACC-257 melanoma
DU-145 prostate = system: DU-145 prostate
SK-MEL-5 melanoma = system: SK-MEL-5 melanoma
A549 NSCLC = system: A549 NSCLC
HT29 colon = system: HT29 colon
MCF7 breast = system: MCF7 breast
KM12 colon = system: KM12 colon
SK-MEL-28 melanoma = system: SK-MEL-28 melanoma
786-0 renal = system: 786-0 renal
UO-31 renal = system: UO-31 renal
CCRF-CEM leukemia = system: CCRF-CEM leukemia
HCT-116 colon = system: HCT-116 colon
ACHN renal = system: ACHN renal
NCI-H522 lung = system: NCI-H522 lung
HCT-15 colon = system: HCT-15 colon
SNB-19 CNS = system: SNB-19 CNS
RXF 393 renal = system: RXF 393 renal
IGROV1 ovarian = system: IGROV1 ovarian

| SMILES | TGI (EKVX NSCLC) [µM] | TGI (BT-549 breast) [µM] | TGI (UACC-257 melanoma) [µM] | TGI (DU-145 prostate) [µM] | TGI (SK-MEL-5 melanoma) [µM] | TGI (A549 NSCLC) [µM] | TGI (HT29 colon) [µM] | TGI (MCF7 breast) [µM] | TGI (KM12 colon) [µM] | TGI (SK-MEL-28 melanoma) [µM] | TGI (786-0 renal) [µM] | TGI (UO-31 renal) [µM] | TGI (CCRF-CEM leukemia) [µM] | TGI (HCT-116 colon) [µM] | TGI (ACHN renal) [µM] | TGI (NCI-H522 lung) [µM] | TGI (HCT-15 colon) [µM] | TGI (SNB-19 CNS) [µM] | TGI (RXF 393 renal) [µM] | TGI (IGROV1 ovarian) [µM] |
| --- | --- | --- | --- | --- | --- | --- | --- | --- | --- | --- | --- | --- | --- | --- | --- | --- | --- | --- | --- | --- |
| COC(=O)c1sc2ncc3c(c2c1N)CCCCCC3 | > 100 | > 100 | > 100 | > 100 | > 100 | > 100 | > 100 | > 100 | > 100 | > 100 | > 100 | > 100 | > 100 | > 100 | > 100 | > 100 | > 100 | > 100 | > 100 | > 100 |
| COC(=O)c1ccccc1CC1Cc2ccc3c(c2C1)CCC3 (stereo not given) | 48.8 | > 100 | 28.6 | > 100 | 43.8 | > 100 | 96.8 | 30.1 | 92.1 | > 100 | > 100 | > 100 | 36.9 | > 100 | > 100 | 46.9 | 55.3 | > 100 | 52.9 | > 100 |
| O=C1c2ccccc2C(=O)[C@@]23O[C@@]12C1(Oc2cccc4cccc(c24)O1)[C@@H]1O[C@@H]1[C@@H]3O | 54.2 | 11.1 | 40.1 | 33.2 | > 64.3 | > 49 | 15.2 | 14.6 | 27.3 | > 54.1 | 11.6 | 24.4 | > 38.7 | 15.1 | 27.7 | 15.6 | 17.6 | 28.8 | 10.4 | 27.4 |
| C=CCN1C(=O)/C(=C/c2ccc(OC)cc2)NC1=S | 58.7 | > 100 | 78.3 | > 100 | > 100 | > 100 | > 100 | > 100 | > 100 | > 100 | > 100 | > 100 | 13.1 | > 100 | > 100 | > 100 | > 100 | > 100 | > 100 | > 100 |
| Oc1cc(-c2ccccc2)cn2c1nc1ccccc12 | > 100 | > 100 | > 100 | > 31.6 | 29.7 | > 100 | > 77.7 | > 100 | > 100 | > 100 | > 79.7 | > 32.8 | > 100 | > 100 | > 100 | > 25.1 | > 100 | > 100 | > 100 | > 38.8 |
| CNC(=O)c1n[nH]nc1Sc1c([N+](=O)[O-])ncn1C | > 100 | > 100 | > 100 | > 100 | > 100 | > 100 | > 100 | > 100 | > 100 | > 100 | > 100 | > 100 | > 100 | > 100 | > 100 | > 100 | > 100 | > 100 | > 100 | > 100 |
| COc1cc(OC)c2c(=O)cc(-c3ccccc3F)[nH]c2c1 | > 100 | > 100 | > 100 | > 100 | > 100 | > 100 | > 100 | > 100 | > 100 | > 100 | > 100 | 84.5 | > 100 | > 100 | > 100 | > 100 | > 100 | 73.6 | > 100 | > 100 |
| Cc1ccc(N=Nc2ccc(O)c(CN(C)C)c2)cc1C | 61.8 | > 100 | 58.9 | 95.8 | 28.4 | > 100 | 38.5 | > 100 | 45.6 | 44.7 | > 100 | 53.2 | 76.5 | > 100 | 60.1 | 28.3 | 54 | > 100 | 57.8 | 84.3 |
| C=CC(c1ccccc1)[C@@]1(OC(C)=O)C(=O)C(=O)OC1C1COC(C)(C)O1 (stereo not given in full) | 35.3 | 30.1 | 23.9 | 54.2 | 29.7 | 34.5 | 46.2 | 22.8 | 29.5 | 24.6 | 33.4 | 23.7 | > 19.6 | 24.7 | 18.6 | 10.8 | 24.9 | 42.7 | 14.6 | 31.9 |
| CN(C)c1ccc(/C=c2/c3ccccc3n3nc4ccccc4c23)cc1 | > 100 | 71.5 | > 100 | > 100 | 73.5 | > 100 | > 100 | > 100 | > 100 | > 100 | > 100 | > 100 | 76.5 | > 100 | > 100 | 31.9 | > 100 | > 100 | 66.8 | > 100 |
| Nc1nc(Cl)c2ncn(Cc3ccc(CCl)cc3)c2n1 | 7.22 | 24.5 | 47.9 | 19.5 | 31 | 76.2 | 27.6 | 16.8 | 22.9 | 44.4 | 93.9 | 25.4 | > 100 | 14.5 | 25.1 | 25.9 | 19.8 | 20 | 7.26 | 22.9 |
| Cc1ccc(C)n1-n1c(Cc2ccccc2)n[nH]c1=O | > 100 | > 100 | > 100 | > 100 | > 100 | > 100 | > 100 | > 100 | > 100 | > 100 | > 100 | > 100 | > 100 | > 100 | > 100 | > 100 | > 100 | > 100 | > 100 | > 100 |
| COc1cc(/C=C2\C[C@H]3[C@@H]4CC=C5C=C(N6CCCC6)CC[C@]5(C)[C@H]4CC[C@]3(C)C2=O)cc(OC)c1OC | 16.5 | 5.82 | 9.48 | 12.8 | > 27.9 | > 51.7 | 8.67 | 11.3 | 4.37 | 19.5 | > 24.2 | 8.48 | > 100 | 3.93 | 5.46 | 2.88 | 6.53 | 18.4 | 4.04 | 3.83 |
| Nc1c2c(=O)[nH]c(=O)c2c(N)c2c(=O)c3ccccc3c(=O)c12 | 9.55 | 3.71 | 3.17 | 3.95 | 0.394 | > 23.1 | 2.83 | 2.72 | 7.56 | 3.98 | 10.9 | 31.1 | > 26.7 | > 100 | 9.79 | 13.5 | 3.19 | > 57.4 | 35.6 | 10.8 |
| NC(=S)N/N=C(\Cc1nc2ccc(Cl)cc2[nH]c1=O)C(=O)Nc1ccc(Cl)cc1 | > 100 | > 100 | > 100 | > 100 | > 100 | > 100 | > 100 | > 100 | > 100 | > 100 | > 100 | > 100 | > 100 | > 100 | > 100 | > 100 | > 100 | > 100 | > 100 | > 100 |
| c1ccc(Cc2nc(Cc3n[nH]c(Cc4ccccc4)n3)n[nH]2)cc1 | > 100 | > 100 | > 100 | > 100 | > 100 | > 100 | > 100 | > 100 | > 100 | > 100 | > 100 | > 100 | > 100 | > 100 | > 100 | > 100 | > 100 | > 100 | > 100 | > 100 |
| COc1c(C)c2c(c(=O)c3c(C)cccc3n2C)c2c1c(=O)c1c(C)cccc1n2C | > 10 | > 10 | > 10 | > 10 | > 10 | > 10 | > 10 | > 10 | > 10 | > 10 | > 10 | > 10 | > 10 | > 10 | > 10 | > 10 | > 10 | > 10 | > 10 | > 10 |
| NNC(=O)c1ccccc1NC(=O)/C(=C/c1ccccc1O)NC(=O)c1ccccc1 | > 100 | > 100 | > 100 | > 100 | > 100 | > 100 | > 100 | 39.2 | > 100 | > 100 | > 100 | 24.2 | > 100 | > 100 | 32.7 | 47.4 | > 100 | 79.7 | > 100 | > 100 |
